The source of these data is patent US20090170827A1, “Acid Addition Salt of Dihydropyridine Derivative” (Daiichi Sankyo Company , Limited, priority 2005, published 2009).

A short description of the data set: Thermal stability test. It counts as physicochemical. On the procedure:
The test compound was placed in a glass bottle and allowed to stand under the following conditions (1) and (2). After a certain period of time had elapsed, the residual rate of the active ingredient [compound (I)] in the test compound was measured by high performance liquid chromatography.
(1): Closed state, 60° C.;
(2): Non-closed state, 40° C., humidity 75%.
The measurement conditions in high performance liquid chromatography are as follows.
Column: L-column ODS [4.6 mm×250 mm, manufactured by Chemicals Evaluation and Research Institute, Japan]
Mobile layer: acetonitrile/22 mM potassium dihydrogenphosphate buffer/methanol=455/350/195 (V/V/V) (adjusted to pH 5.5 by phosphoric acid)
Column temperature: 40° C.
Detection wavelength: 220 nm
The residual rate (%) was calculated by the following formula.
The residual rate (%)=[1−(sum of peak area percentages of impurities and decomposed products)]×100

Setting [1] is: Condition (1): closed state, 60° C.
The mark [2] stands for this setting: Condition (1): closed state, 60° C., time 0 month.
[3] abbreviates: Condition (1): closed state, 60° C., time 1 month.
[4] abbreviates: Condition (1): closed state, 60° C., time 3 months.
Where [5] appears, read: Condition (1): closed state, 60° C., time 0 month, dihydrochloride.
Setting [6] is: Condition (1): closed state, 60° C., time 1 month, dihydrochloride.
[7] abbreviates: Condition (2): non-closed state, 40° C., humidity 75%, dihydrochloride.
Where [8] appears, read: Condition (2): non-closed state, 40° C., humidity 75%, time 0 month, dihydrochloride.
Where [9] appears, read: Condition (2): non-closed state, 40° C., humidity 75%, time 1 month.
The mark [10] stands for this setting: Condition (2): non-closed state, 40° C., humidity 75%, time 3 months.
Where [11] appears, read: Condition (1): closed state, 60° C., time 6 months.
Setting [12] is: Condition (2): non-closed state, 40° C., humidity 75%.
Setting [13] is: Condition (2): non-closed state, 40° C., humidity 75%, time 0 month.
[14] abbreviates: Condition (2): non-closed state, 40° C., humidity 75%, time 6 months.

On to `CC1=C(C(=O)OC(C)C)C(c2cccc([N+](=O)[O-])c2)C(C(=O)OC2CN(C(c3ccccc3)c3ccccc3)C2)=C(N)N1.O=C(O)CC(O)(CC(=O)O)C(=O)O` (single isomer, unassigned) [Example 2, 2-Amino-1,4-dihydro-6-methyl-4-(3-nitrophenyl)-3,5-pyridinedicarboxylic acid 3-(1-diphenylmethylazetidin-3-yl)ester 5-isopropyl ester monocitrate], for which, under setting [1], the “stability (in words)” value was “equal in stability”. The “Residual rate of Compound (I)” value worked out at 98.8% under setting [2], 96.9% under setting [3] and 95.8% under setting [4].

With `CC1=C(C(=O)OC(C)C)C(c2cccc([N+](=O)[O-])c2)C(C(=O)OC2CN(C(c3ccccc3)c3ccccc3)C2)=C(N)N1.CS(=O)(=O)O.CS(=O)(=O)O` (centres unmarked) [Example 3, 2-Amino-1,4-dihydro-6-methyl-4-(3-nitrophenyl)-3,5-pyridinedicarboxylic acid 3-(1-diphenylmethylazetidin-3-yl)ester 5-isopropyl ester dimethanesulfonate], the “Residual rate of Compound (I)” value under setting [2] came out at 99.6%, the “Residual rate of Compound (I)” value under setting [3] stood at 98.7% and the “Residual rate of Compound (I)” value under setting [4] is 98.5%.

On to `CC1=C(C(=O)OC(C)C)C(c2cccc([N+](=O)[O-])c2)C(C(=O)OC2CN(C(c3ccccc3)c3ccccc3)C2)=C(N)N1.Cl.Cl` (centres unmarked) [Comparative Example 2, 2-Amino-1,4-dihydro-6-methyl-4-(3-nitrophenyl)-3,5-pyridinedicarboxylic Acid 3-(1-diphenylmethylazetidin-3-yl)ester 5-isopropyl Ester Dihydrochloride, reference compound], for which the “stability (in words)” value reads like this: under setting [1], “extremely low stability”; under setting [7], “extremely low stability”. For the same molecule, the “Residual rate of Compound (I)” value came to 97.3% under setting [5]; 10.3% under setting [6]; 97.3% under setting [8]; 11.3% (Condition (2): non-closed state, 40° C., humidity 75%, time 1 month, Dihydrochloride).

Consider `CC1=C(C(=O)OC(C)C)C(c2cccc([N+](=O)[O-])c2)C(C(=O)OC2CN(C(c3ccccc3)c3ccccc3)C2)=C(N)N1.Cl.Cl` (centres unmarked) [Comparative Example 1, 2-Amino-1,4-dihydro-6-methyl-4-(3-nitrophenyl)-3,5-pyridinedicarboxylic acid 3-(1-diphenylmethylazetidin-3-yl)ester 5-isopropyl ester dihydrochloride, reference compound], for which the “stability (in words)” value under setting [1] is on record as “extremely low stability” and the “stability (in words)” value under setting [7] is “low stability”. Also, the “Residual rate of Compound (I)” value under setting [5] is listed as 98.1%; the “Residual rate of Compound (I)” value under setting [6] is reported as 60.0%; the “Residual rate of Compound (I)” value under setting [4] worked out at 58.9%; the “Residual rate of Compound (I)” value under setting [8] amounted to 98.1%; the “Residual rate of Compound (I)” value under setting [9] came out at 62.9%; the “Residual rate of Compound (I)” value under setting [10] is 59.0%.

As for `CC1=C(C(=O)OC(C)C)C(c2cccc([N+](=O)[O-])c2)C(C(=O)OC2CN(C(c3ccccc3)c3ccccc3)C2)=C(N)N1.O=S(=O)(O)c1ccccc1.O=S(=O)(O)c1ccccc1` (centres unmarked) [Example 5, 2-Amino-1,4-dihydro-6-methyl-4-(3-nitrophenyl)-3,5-pyridinedicarboxylic acid 3-(1-diphenylmethylazetidin-3-yl)ester 5-isopropyl ester dibenzenesulfonate], the “stability (in words)” value under setting [1] is “equal in stability”. Further, the “Residual rate of Compound (I)” value runs as follows: under setting [2], 99.7%; under setting [3], 98.6%; under setting [4], 96.5%; under setting [11], 93.3%.

Take `CC1=C(C(=O)OC(C)C)C(c2cccc([N+](=O)[O-])c2)C(C(=O)OC2CN(C(c3ccccc3)c3ccccc3)C2)=C(N)N1.CS(=O)(=O)O.CS(=O)(=O)O.CS(=O)(=O)O` (centres unmarked) [Example 4, 2-Amino-1,4-dihydro-6-methyl-4-(3-nitrophenyl)-3,5-pyridinedicarboxylic acid 3-(1-diphenylmethylazetidin-3-yl)ester 5-isopropyl ester trimethanesulfonate]: the “Residual rate of Compound (I)” value under setting [2] amounted to 99.5%; the “Residual rate of Compound (I)” value under setting [3] was 98.6%; the “Residual rate of Compound (I)” value under setting [4] turned out to be 98.1%; the “Residual rate of Compound (I)” value under setting [13] came to 99.5%; the “Residual rate of Compound (I)” value under setting [9] was determined as 99.1%; the “Residual rate of Compound (I)” value under setting [10] came to 98.8%. Further, under setting [12], the “stability (in words)” value is on record as “excellent stability”.

Regarding `CC1=C(C(=O)OC(C)C)C(c2cccc([N+](=O)[O-])c2)C(C(=O)OC2CN(C(c3ccccc3)c3ccccc3)C2)=C(N)N1.O=S(=O)(O)O` (centres unmarked) [Comparative Example 3, 2-Amino-1,4-dihydro-6-methyl-4-(3-nitrophenyl)-3,5-pyridinedicarboxylic Acid 3-(1-diphenylmethylazetidin-3-yl)ester 5-isopropyl Ester Monosulfate, reference compound], the “stability (in words)” value is on record as “did not have high stability” under setting [1] and “low stability” under setting [12]. Moreover, the “Residual rate of Compound (I)” value by setting is: under setting [2], 99.5%; under setting [3], 96.9%; under setting [4], 94.9%; under setting [11], 92.8%; under setting [13], 99.5%; under setting [9], 93.9%. For the same molecule, the “Residual rate of Compound (I)” value runs as follows: under setting [10], 88.9%; under setting [14], 84.8%.

With “2-Amino-1,4-dihydro-6-methyl-4-(3-nitrophenyl)-3,5-pyridinedicarboxylic Acid 3-(1-diphenylmethylazetidin-3-yl)ester 5-isopropyl Ester Hemifumarate [Comparative Example 4, reference compound]”, the “stability (in words)” value runs as follows: under setting [1], “did not have high stability”; under setting [12], “low stability”. Moreover, the “Residual rate of Compound (I)” value runs as follows: under setting [2], 99.7%; under setting [3], 96.7%; under setting [4], 93.0%; under setting [13], 99.7%; under setting [9], 94.8%; under setting [10], 91.3%.

In the case of `CC1=C(C(=O)OC(C)C)C(c2cccc([N+](=O)[O-])c2)C(C(=O)OC2CN(C(c3ccccc3)c3ccccc3)C2)=C(N)N1.Cc1ccc(S(=O)(=O)O)cc1.Cc1ccc(S(=O)(=O)O)cc1` (centres unmarked) [Example 6, 2-Amino-1,4-dihydro-6-methyl-4-(3-nitrophenyl)-3,5-pyridinedicarboxylic acid 3-(1-diphenylmethylazetidin-3-yl)ester 5-isopropyl ester di-p-toluenesulfonate], the “Residual rate of Compound (I)” value came out at 99.6% under setting [2]; 98.8% under setting [3]; 98.3% under setting [4]; 97.3% under setting [11]; 99.6% under setting [13]; 97.5% under setting [9]. Moreover, the “Residual rate of Compound (I)” value under setting [10] was 96.4% and the “Residual rate of Compound (I)” value under setting [14] is given as 94.5%. Further, the “stability (in words)” value under setting [12] was “excellent stability”.

Regarding “2-Amino-1,4-dihydro-6-methyl-4-(3-nitrophenyl)-3,5-pyridinedicarboxylic acid 3-(1-diphenylmethylazetidin-3-yl)ester 5-isopropyl Ester Dinaphthalenesulfonate [Example 7]”, under setting [1], the “stability (in words)” value is recorded as “equal in stability”. Moreover, the “Residual rate of Compound (I)” value came out at 99.4% under setting [2], 97.3% under setting [3], 95.4% under setting [4] and 93.0% under setting [11].
